Assay [1] concerns the target T1, HIOMT2 (OMT2) O-methyltransferase (Humulus lupulus, UniProt B0ZB56).
T1 construct: The open reading frame of each enzyme was cloned into the baculovirus expression vector pFastBacHT (Invitrogen); 6xHis with TEV site, from the pFastBacHT vector (own knowledge); made in house; host or cells: Spodoptera frugiperda (Sf9) insect cells, baculovirus; crude cell lysate
T1 sequence (B0ZB56 1-360): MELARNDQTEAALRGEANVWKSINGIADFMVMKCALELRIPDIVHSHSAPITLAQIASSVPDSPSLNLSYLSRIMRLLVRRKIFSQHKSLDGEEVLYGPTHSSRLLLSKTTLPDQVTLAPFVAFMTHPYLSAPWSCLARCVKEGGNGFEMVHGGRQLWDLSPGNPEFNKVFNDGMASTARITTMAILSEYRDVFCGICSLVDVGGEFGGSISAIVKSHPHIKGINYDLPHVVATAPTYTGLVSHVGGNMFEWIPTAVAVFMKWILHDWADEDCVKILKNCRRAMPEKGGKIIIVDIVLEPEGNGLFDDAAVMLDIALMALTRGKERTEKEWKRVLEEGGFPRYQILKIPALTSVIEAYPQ
Kind of assay: 14C-SAM methylation enzyme assay with recombinant HIOMT2 (OMT2) insect cell lysate. It is filed as biochemical. Particulars: recombinant enzyme from Sf9 insect cell lysate, 14C-SAM methyl donor, ethyl acetate extract, scintillation counting. From the text:
(§1) The open reading frame of each enzyme was cloned into the baculovirus expression vector pFastBacHT (Invitrogen) and the resulting bacmid generated using the Bac-to-Bac system (Invitrogen). The bacmid was used to transfect Spodoptera frugiperda (Sf9) insect cells. After amplification of the baculovirus through several passages, insect cell monolayers were infected, cultivated for 2-4 days and then centrifuged to separate cells from culture media. Cell pellets were lysed and aliquots used directly in enzyme assay containing ^14C—S-adenosyl methionine (^14C-SAM) as a methyl donor and various phenolic and phenylpropanoid natural products as substrates. Methylation activity was measured by the extraction of the enzyme reaction with ethyl acetate and its analysis by scintillation counting. In this assay, ^14C-methylation of one of the proffered substrates is indicated by the presence of radioactivity in the ethyl acetate extract.

Assay [2] deals with T2, HIOMT1 (OMT1) O-methyltransferase (Humulus lupulus, UniProt B0ZB55, L311X).
T2 construct: The open reading frame of each enzyme was cloned into the baculovirus expression vector pFastBacHT (Invitrogen); 6xHis with TEV site, from the pFastBacHT vector (own knowledge); made in house; host or cells: Spodoptera frugiperda (Sf9) insect cells, baculovirus; crude cell lysate
The assay can be described thus: 14C-SAM methylation enzyme assay with recombinant HIOMT1 (OMT1) insect cell lysate. It is filed as biochemical. Particulars: for methylation of substrate by OMT1: recombinant enzyme from Sf9 insect cell lysate, 14C-SAM methyl donor, ethyl acetate extract, scintillation counting. As to the method: FIG. 3. Enzymatic activity of HIOMT1 showing that this enzyme methylates desmethylxanthohumol to produce xanthohumol. […] Recombinant HIOMT1 was expressed in insect cells and crude cell lysate used for enzymatic assay. (A) Radio-HPLC analysis of reaction products from empty vector control lysate incubated with ^14C-SAM and desmethylxanthohumol. (B) Radio-HPLC analysis of reaction products from HIOMT1 lysate incubated with ^14C-SAM. (C) Radio-HPLC analysis of reaction products HIOMT1 lysate incubated with ^14C-SAM and desmethylxanthohumol showing that xanthohumol is formed (D) Reversed-phase HPLC analysis of authentic xanthohumol.
as §1

Results on 14 compounds are retold here after US7723088B2, “DNA sequences involved in prenylflavonoid biosynthesis in hops and their use in modifying prenylflavonoid production in plants” (priority 2005, dated 2010).

“Also recorded” adds a separate entry of the source.

For the compound `CC(C)=CCc1c(O)cc(O)c(C(=O)/C=C/c2ccc(O)cc2)c1O` [desmethylxanthohumol], in assay [1], the “methylation of substrate by OMT2” value is “capable of using desmethylxanthohumol as a substrate; also recorded: methylate”. For the same compound, the “methylation by HIOMT1, reaction product by radio-HPLC (FIG. 3)” value in assay [2] (crude insect cell lysate, 14C-SAM, radio-HPLC analysis, product xanthohumol) was “methylates desmethylxanthohumol to form xanthohumol”. Also, the “methylation of substrate by OMT1” value in assay [2] was “capable of using desmethylxanthohumol as a substrate; also recorded: methylate”.

For the compound `O=C(/C=C/c1ccc(O)c(O)c1)c1ccc(O)cc1O` [butein], the “methylation of substrate by OMT2” value in assay [1] is recorded as “methylate”. As for `O=C(/C=C/c1ccc(O)cc1)c1ccc(O)cc1O` [isoliquiritigenin], the “methylation of substrate by OMT2” value in assay [1] is on record as “methylate”. With `Oc1ccc(C=Cc2cc(O)cc(O)c2)cc1` [resveratrol], in assay [1], the “methylation of substrate by OMT2” value was “methylate”. The same measure, in the same setting: to `O=C(/C=C/c1ccc(O)cc1)c1c(O)cc(O)cc1O` [chalconaringenin] belongs “methylate”; to `COc1ccccc1O` [guaiacol], “methylate”. `Oc1cccc(O)c1` [resorcinol]: the “methylation of substrate by OMT2” value in assay [1] is “methylate”.

In the case of `Cc1cc(O)cc(O)c1` [orcinol], the “methylation of substrate by OMT2” value in assay [1] is reported as “methylate”. `COc1cc(O)c(C(=O)/C=C/c2ccc(O)cc2)c(O)c1CC=C(C)C` [xanthogalenol]: the “methylation of substrate by OMT1” value in assay [2] is given as “methylate”.

As to `Oc1ccccc1O` [catechol], the “methylation of substrate by OMT2” value in assay [1] is “methylate”. The same measure, in the same setting: to `COc1cc(O)c(CC=C(C)C)c(O)c1C(=O)C=Cc1ccc(O)cc1` [xanthohumol, 1-[2,4-dihydroxy-6-methoxy-3-(3-methylbut-2-enyl)phenyl]-3-(4-hydroxyphenyl)-prop-2-en-1-one] belongs “methylate”.

As for `O=C(/C=C/c1ccc(O)cc1)c1ccccc1O` [2′,4-dihydroxychalcone], the “methylation of substrate by OMT2” value in assay [1] is listed as “methylate”. Take `O=c1c(-c2ccc(O)cc2)coc2cc(O)cc(O)c12` [genistein]: in assay [1], the “methylation of substrate by OMT2” value was “methylate”.

Turning to `C=CCc1ccc(O)c(OC)c1` [eugenol], in assay [1], the “methylation of substrate by OMT2” value is on record as “methylate”.
